pIC50: −log10 of the molar value.
Legend:
[1] = target: T1, Plasminogen activator inhibitor 1 (Homo sapiens, UniProt P05121); assay: Inhibition of human PAI1
[2] = target: T1, Plasminogen activator inhibitor 1; assay: Inhibition of human PAI1 at 15 uM
[3] = target: T1, Plasminogen activator inhibitor 1; assay: Inhibition of human PAI1 at 10 uM

T1 sequence (P05121 whole entry): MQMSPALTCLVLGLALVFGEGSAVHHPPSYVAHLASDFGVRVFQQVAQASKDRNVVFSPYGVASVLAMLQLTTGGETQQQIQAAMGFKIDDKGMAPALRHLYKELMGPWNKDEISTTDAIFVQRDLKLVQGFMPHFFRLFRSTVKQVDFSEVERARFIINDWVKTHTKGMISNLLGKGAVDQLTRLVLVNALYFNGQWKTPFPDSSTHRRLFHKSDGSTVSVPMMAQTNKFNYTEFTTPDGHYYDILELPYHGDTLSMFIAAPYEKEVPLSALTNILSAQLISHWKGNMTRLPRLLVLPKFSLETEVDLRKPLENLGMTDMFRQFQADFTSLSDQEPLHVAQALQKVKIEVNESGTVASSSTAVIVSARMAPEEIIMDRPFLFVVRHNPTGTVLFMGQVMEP

Compound	pIC50 [1]	also measured
N#C/C=C/c1ccc(/C=C2\NC(=O)C(c3ccccc3)=C2c2ccco2)o1	5.92	
COc1ccc(C2=C(c3ccco3)/C(=C/c3ccc(/C=C/C(=O)O)o3)NC2=O)cc1OC	5.96	
O=C1N/C(=C\c2ccc(C(=O)O)o2)C(c2ccco2)=C1c1ccccc1		inhibition [2]: 34%
O=C1N/C(=C\c2ccco2)C(c2ccco2)=C1c1ccccc1		inhibition [3]: 36%
COc1ccccc1C1=C(c2ccccc2)C(=O)N/C1=C\c1ccc(C)o1	6.03	
O=C(O)/C=C/c1ccc(/C=C2\NC(=O)C(c3ccccc3)=C2c2ccco2)o1	5.82	
COc1ccc(C2=C(c3cccs3)/C(=C/c3ccc(/C=C/C(=O)O)o3)NC2=O)cc1OC	6.16	
COc1ccc(C2=C(c3ccco3)/C(=C/c3ccncc3)NC2=O)cc1OC	5.11	
O=C(O)COc1cccc(/C=C2\NC(=O)C(c3ccccc3)=C2c2ccccc2)c1	5.02	
COc1ccccc1C1=C(c2ccccc2)C(=O)N/C1=C\c1ccc(/C=C/C(=O)O)o1	6.19	

— ChEMBL document CHEMBL1153206, “Evaluation of pyrrolin-2-one derivatives synthesized by a new practical method as inhibitors of plasminogen activator inhibitor-1 (PAI-1)” (Bioorg Med Chem Lett, 2010)
